Laboratory results from patent publication US11814376B2, “Hepatitis b core protein modulators” (Assembly Biosciences, Inc., priority 2015, dated 2023).

Tests used:
[1] = tested on: HBV viral load in AD38 cells; assay: Viral load production in AD38 cells, quantitative PCR of the core sequence in supernatant; type: cell-based; details: Hepatitis B virus, 144 h, 10 μM compound, 6 days at 37° C., supernatant qPCR, relative to DMSO control; read-out: AD38 Viral Load (%) (VL with cmpd/VL in DMSO control) at 10 μM
Method: (§1) Example 2: Assay Measuring Activity of Compounds on Viral Production in and on Viability of AD38 Cells
(§2) AD38 cells were then re-suspended with 10 mL of Treatment Medium and counted. Wells of a collagen coated 96-well NUNC microtiter plate were seeded at 50,000/well in 180 μL of Treatment Medium, and 20 μL of in treatment media with either 10% DMSO (Control) or a 10× solution of compound in 10% DMSO was added. Plates were incubated for 6 days at 37° C.
Viral load production was assayed by quantitative PCR of the core sequence. […] The PCR mixture was incubated at 45° C. for 5 minutes, then 95° C. for 10 min, followed by 40 cycles of 10 seconds at 95° C. and 20 seconds at 60° C. Viral load was quantitated against known standards by using ViiA™ 7 Software. Viral load in the supernatant from wells with treated cells were compared against viral load in supernatant from DMSO control wells (>3 per plate).

AD38 cells = assay: Viability of AD38 cells (Promega CellTiter-Glo); type: cell-based; details: 10 μM compound, 6 days, CellTiter-Glo luminescence normalized to DMSO control (100%)
Method: as §1, §2
At the end of compound treatment period cell viability was assessed using a Promega CellTiter-Glo protocol. All supernatant was removed the previously treated 96-well microtiter plate, and 50 μL Tetracycline-free treatment medium (DMEM/F12 (1:1), 1× Pen/step (cat #: 30-002-CL, Mediatech, Inc), with 2% FBS, Tet-system approved (cat #: 631106, Clontech), and 1% DMSO was added back to each well. Another 50 μL of CellTiter-Glo reagent solution (Promega, G7573) was then added at room temperature and the contents mixed for 2 minutes on an orbital shaker to induce cell lysis. This was followed by incubation at room temperature for 10 minutes to stabilize the luminescent signal. The luminescence was recorded for 0.2 seconds per well on a Tecan multimode plate reader (Infinite M1000 pro). The luminescent signal from each well was normalized against that of untreated (DMSO) control wells. All results were reported percent viability (with controls being 100%).

Row | Compound | activity at 10 µM [1] [%] | AD38 Viability Normalized Result (cmpd/DMSO %) at 10 μM (AD38 cells) [%]
1 | CC1c2ccc(C(=O)NCc3cncs3)cc2NC(=O)c2ccccc21 (stereo not drawn) [compound 1546] | 2.2 | 97
2 | Cc1ncc(CNC(=O)c2ccc3c(c2)NC(=O)c2ccccc2C3C)s1 (stereo not drawn) [compound 1548] | 0.4 | 97
3 | CC(C)(NC(=O)c1ccc2c(c1)NC(=O)c1ccccc1S2)c1cncs1 [compound 1549] | 106 | 105
4 | CC(C)(C)c1ncc(CNC(=O)c2ccc3c(c2)NC(=O)c2ccccc2S3(=O)=O)s1 [compound 1550] | 4 | 96
5 | CCc1ncc(CNC(=O)c2ccc3c(c2)NC(=O)c2ccccc2S3(=O)=O)s1 [compound 1551] | 0.4 | 99
6 | CC(C)c1ncc(CNC(=O)c2ccc3c(c2)NC(=O)c2ccccc2S3(=O)=O)s1 [compound 1552] | 0.4 | 102
7 | O=C(NCc1cnc(C(F)(F)F)s1)c1ccc2c(c1)NC(=O)c1ccccc1S2(=O)=O [compound 1553] | 0.5 | 107
8 | CC(C)(C)c1ncc(CNC(=O)c2ccc3c(c2)NC(=O)c2ccccc2S3)s1 [compound 1555] | 1 | 89
9 | O=C(NCc1cnc(-c2ccc(F)cc2)s1)c1ccc2c(c1)NC(=O)c1ccccc1S2 [compound 1556] | 1.6 | 105
10 | Cc1ncc(CNC(=O)c2ccc3c(c2)NC(=O)c2ccccc2O3)s1 [compound 1557] | 0.6 | 98
11 | CCc1ncc(CNC(=O)c2ccc3c(c2)NC(=O)c2ccccc2O3)s1 [compound 1558] | 0.5 | 106
12 | CC(C)c1ncc(CNC(=O)c2ccc3c(c2)NC(=O)c2ccccc2O3)s1 [compound 1559] | 0.7 | 87
13 | O=C(NCc1cnc(-c2ccc(F)cc2)s1)c1ccc2c(c1)NC(=O)c1ccccc1O2 [compound 1561] | 10.3 | 96
14 | O=C(NCc1cnc(-c2ccccc2)s1)c1ccc2c(c1)NC(=O)c1ccccc1O2 [compound 1562] | 0.9 | 97
15 | O=C(O)COc1ncc(CNC(=O)c2ccc3c(c2)NC(=O)c2ccccc2S3(=O)=O)s1 [compound 1580, 2-((5-((5,5-dioxido-11-oxo-10, 11-dihydrodibenzo [b, f] [1, 4]thiazepine-8-carboxamido)methyl)thiazol-2-yl)oxy) acetic acid] | 104 | 102
16 | O=C(O)COc1ccc(-c2ncc(CNC(=O)c3ccc4c(c3)NC(=O)c3ccccc3S4(=O)=O)s2)cc1 [compound 1581, 2-(4-(5-((5,5-dioxido-11-oxo-10, 11-dihydrodibenzo [b, f] [1, 4]thiazepine-8-carboxamido)methyl)thiazol-2-yl)phenoxy) acetic acid] | 34.4 | 93
17 | O=C(O)CNc1ncc(CNC(=O)c2ccc3c(c2)NC(=O)c2ccccc2S3(=O)=O)s1 [compound 1583, (5-((5,5-dioxido-11-oxo-10, 11-dihydrodibenzo [b, f] [1, 4]thiazepine-8-carboxamido)methyl)thiazol-2-yl) glycine] | 1 | 0
18 | CN(C)CCOc1ccc(-c2ncc(CNC(=O)c3ccc4c(c3)NC(=O)c3ccccc3S4(=O)=O)s2)cc1 [compound 1584] | 1.4 | 101

Row | Compound | activity at 10 µM [1] [%] | AD38 Viability Normalized Result (cmpd/DMSO %) at 10 μM (AD38 cells) [%]
19 | O=C(O)c1ccc(-c2ncc(CNC(=O)c3ccc4c(c3)NC(=O)c3ccccc3S4(=O)=O)s2)cc1 [compound 1585, 4-(5-((5,5-dioxido-11-oxo-10, 11-dihydrodibenzo [b, f] [1, 4]thiazepine-8-carboxamido)methyl)thiazol-2-yl) benzoic acid] | 64.1 | 96
20 | CN(C)CCOc1ncc(CNC(=O)c2ccc3c(c2)NC(=O)c2ccccc2S3(=O)=O)s1 [compound 1586, N-((2-(2-(dimethylamino)ethoxy)thiazol-5-yl)methyl)-11-oxo-10, 11-dihydrodibenzo [b, f] [1, 4] thiazepine-8-carboxamide 5,5-dioxide] | 27.9 | 83
21 | O=C(NCc1cnc(-c2ccc(OCCN3CCOCC3)cc2)s1)c1ccc2c(c1)NC(=O)c1ccccc1S2(=O)=O [compound 1587] | 2.8 | 99
22 | O=C(O)CSc1ncc(CNC(=O)c2ccc3c(c2)NC(=O)c2ccccc2S3(=O)=O)s1 [compound 1589, 2-((5-((5,5-dioxido-11-oxo-10, 11-dihydrodibenzo [b, f] [1, 4]thiazepine-8-carboxamido)methyl)thiazol-2-yl)thio) acetic acid] | 80 | 98
23 | CN(C)CCSc1ncc(CNC(=O)c2ccc3c(c2)NC(=O)c2ccccc2S3(=O)=O)s1 [compound 1590] | 6.2 | 95
24 | Cc1ncc(CNC(=O)c2ccc3c(=O)c4ccccc4c(=O)[nH]c3c2)s1 [compound 1592] | 1.3 | 99
25 | O=C(NCc1cnc(-c2ccccc2)s1)c1ccc2c(=O)c3ccccc3c(=O)[nH]c2c1 [compound 1594] | 0.9 | 105
26 | O=C(NCc1cnc(-c2ccc(O)cc2)s1)c1ccc2c(c1)NC(=O)c1ccccc1S2(=O)=O [compound 1595, N-((2-(4-hydroxyphenyl)thiazol-5-yl)methyl)-11-oxo-10, 11-dihydrodibenzo [b, f] [1, 4] thiazepine-8-carboxamide 5,5-dioxide] | 0.3 | 109
27 | COc1ccc(-c2ncc(CNC(=O)c3ccc4c(c3)NC(=O)c3ccccc3S4(=O)=O)s2)cc1 [compound 1596] | 3.8 | 25
28 | O=C(NCc1cnc(N2CCOCC2)s1)c1ccc2c(c1)NC(=O)c1ccccc1S2 [compound 1598] | 1.4 | 97
29 | O=C(O)c1ccc(-c2ncc(CNC(=O)c3ccc4c(c3)NC(=O)c3ccccc3S4)s2)cc1 [compound 1599, 4-(5-((11-oxo-10, 11-dihydrodibenzo [b, f] [1, 4]thiazepine-8-carboxamido)methyl)thiazol-2-yl) benzoic acid] | 5.9 | 61
30 | O=C(O)CNc1ncc(CNC(=O)c2ccc3c(c2)NC(=O)c2ccccc2S3)s1 [compound 1602, (5-((11-oxo-10, 11-dihydrodibenzo [b, f] [1, 4]thiazepine-8-carboxamido)methyl)thiazol-2-yl) glycine] | 59.8 | 97
31 | O=C(O)CSc1ncc(CNC(=O)c2ccc3c(c2)NC(=O)c2ccccc2S3)s1 [compound 1603, 2-((5-((11-oxo-10, 11-dihydrodibenzo [b, f] [1, 4]thiazepine-8-carboxamido)methyl)thiazol-2-yl)thio) acetic acid] | 32.8 | 108
32 | CN(C)CCSc1ncc(CNC(=O)c2ccc3c(c2)NC(=O)c2ccccc2S3)s1 [compound 1604] | 0.9 | 82
33 | O=C(NCc1cnc(-c2ccc(O)cc2)s1)c1ccc2c(c1)NC(=O)c1ccccc1S2 [compound 1605] | 0.7 | 96
34 | COc1ccc(-c2ncc(CNC(=O)c3ccc4c(c3)NC(=O)c3ccccc3S4)s2)cc1 [compound 1606] | 3 | 91
35 | O=C(O)COc1ccc(-c2ncc(CNC(=O)c3ccc4c(c3)NC(=O)c3ccccc3S4)s2)cc1 [compound 1607, 2-(4-(5-((11-oxo-10, 11-dihydrodibenzo [b, f] [1, 4]thiazepine-8-carboxamido)methyl)thiazol-2-yl)phenoxy) acetic acid] | 52.8 | 98
36 | CN(C)CCOc1ccc(-c2ncc(CNC(=O)c3ccc4c(c3)NC(=O)c3ccccc3S4)s2)cc1 [compound 1608] | 12.4 | 98
